Here are results for 18 molecules from patent US20230041743A1, “1,8-NAPHTHYRIDIN-2-ONE COMPOUNDS FOR THE TREATMENT OF AUTOIMMUNE DISEASE” (Hoffmann-La Roche Inc., priority 2019, published 2023).

The assay has as its target T1, human TLR9 (Homo sapiens, UniProt Q9NR96).
T1 construct: host or cells: HEK293 (HEK-Blue hTLR9)
T1 sequence (Q9NR96 26-1032): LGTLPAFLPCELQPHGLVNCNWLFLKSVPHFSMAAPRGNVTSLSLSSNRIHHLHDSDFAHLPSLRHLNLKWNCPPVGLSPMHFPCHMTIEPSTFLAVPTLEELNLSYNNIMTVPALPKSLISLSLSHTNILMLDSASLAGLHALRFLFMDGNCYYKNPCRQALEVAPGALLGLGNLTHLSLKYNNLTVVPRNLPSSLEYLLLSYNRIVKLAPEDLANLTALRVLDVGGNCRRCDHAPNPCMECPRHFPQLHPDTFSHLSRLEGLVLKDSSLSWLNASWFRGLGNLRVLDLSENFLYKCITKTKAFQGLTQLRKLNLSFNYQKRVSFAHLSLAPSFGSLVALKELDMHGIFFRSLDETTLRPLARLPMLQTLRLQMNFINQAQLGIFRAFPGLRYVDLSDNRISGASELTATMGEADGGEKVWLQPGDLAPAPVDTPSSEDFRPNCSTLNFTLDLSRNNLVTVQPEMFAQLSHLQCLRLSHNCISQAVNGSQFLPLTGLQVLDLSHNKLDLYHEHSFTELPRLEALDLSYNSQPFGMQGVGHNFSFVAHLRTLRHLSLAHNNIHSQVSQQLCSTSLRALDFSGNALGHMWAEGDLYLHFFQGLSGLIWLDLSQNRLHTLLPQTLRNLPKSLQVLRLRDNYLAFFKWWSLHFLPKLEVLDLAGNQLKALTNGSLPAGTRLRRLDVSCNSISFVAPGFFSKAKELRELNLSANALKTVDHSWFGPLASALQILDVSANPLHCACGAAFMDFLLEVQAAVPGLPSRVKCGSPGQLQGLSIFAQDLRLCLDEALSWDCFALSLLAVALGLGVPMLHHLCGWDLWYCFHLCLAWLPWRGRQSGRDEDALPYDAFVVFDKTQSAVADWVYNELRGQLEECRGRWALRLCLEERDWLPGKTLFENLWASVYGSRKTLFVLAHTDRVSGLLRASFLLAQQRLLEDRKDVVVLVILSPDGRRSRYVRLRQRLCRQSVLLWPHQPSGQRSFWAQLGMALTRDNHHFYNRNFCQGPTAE
Description: HEK293-Blue-hTLR-9 cells assay (SEAP reporter, ODN2006 stimulation). The format is cell-based. The following applies: HEK293-Blue-hTLR9 cells, ODN2006 ligand, 20 hrs incubation; read-out: HEK/hTLR9 IC50. The text has this: HEK293-Blue-hTLR-9 Cells Assay:
A stable HEK293-Blue-hTLR-9 cell line was purchased from InvivoGen (Cat. #: hkb-htlr9, San Diego, Calif., USA). These cells were originally designed for studying the stimulation of human TLR9 by monitoring the activation of NF-κB. A SEAP (secreted embryonic alkaline phosphatase) reporter gene was placed under the control of the IFN-β minimal promoter fused to five NF-κB and AP-1-binding sites. The SEAP was induced by activating NF-κB and AP-1 via stimulating HEK-Blue hTLR9 cells with TLR9 ligands. Therefore the reporter expression was declined by TLR9 antagonist under the stimulation of a ligand, such as ODN2006 (Cat. #: tlrl-2006-1, Invivogen, San Diego, Calif., USA), for incubation of 20 hrs. The cell culture supernatant SEAP reporter activity was determined using QUANTI-Blue™ kit (Cat. #: rep-qb1, Invivogen, San Diego, Calif., USA) at a wavelength of 640 nm, a detection medium that turns purple or blue in the presence of alkaline phosphatase.
HEK293-Blue-hTLR9 cells were incubated at a density of 250,000˜450,000 cells/mL in a volume of 170 μL in a 96-well plate in Dulbecco's Modified Eagle's medium (DMEM) containing 4.5 g/L glucose, 50 U/mL penicillin, […], 2 mM L-glutamine, 10% (v/v) heat-inactivated fetal bovine serum with addition of 20 μL test compound in a serial dilution in the presence of final DMSO at 1% and 10 μL of 20 uM ODN2006 in above DMEM, perform incubation under 37° C. in a CO2 incubator for 20 hrs. Then 20 μL of the supernatant from each well was incubated with 180 μL Quanti-blue substrate solution at 37° C. for 2 h and the absorbance was read at 620˜655 nm using a spectrophotometer. The signaling pathway that TLR9 activation leads to downstream NF-κB activation has been widely accepted, and therefore similar reporter assay was modified for evaluating TLR9 antagonist.
As for `C[C@@H]1CN(c2cc(=O)n(C)c3ncccc23)C[C@@H]2c3ccc(N4CC(C)(N)C4)cc3CN12` [Example 1, 4-[(4R,10bS)-8-(3-amino-3-methyl-azetidin-1-yl)-4-methyl-3,4,6,10b-tetrahydro-1H-pyrazino[2,1-a]isoindol-2-yl]-1-methyl-1,8-naphthyridin-2-one], the IC50 was 262 nM.

Turning to `C[C@@H]1CN(c2cc(=O)n(C)c3ncccc23)C[C@@H]2c3ccc(N4CC5(CN(C)C5)C4)cc3CN12` [Example 2, 4-[(4R,10bS)-4-methyl-8-(6-methyl-2,6-diazaspiro[3.3]heptan-2-yl)-3,4,6,10b-tetrahydro-1H-pyrazino[2,1-a]isoindol-2-yl]-1-methyl-1,8-naphthyridin-2-one], the IC50 was found to be 136 nM.

Turning to `C[C@@H]1CN(c2cc(=O)n(C)c3ncccc23)C[C@@H]2c3ccc(N4CC5(CNCCO5)C4)cc3CN12` [Example 3, 4-[(4R,10bS)-4-methyl-8-(5-oxa-2,8-diazaspiro[3.5]nonan-2-yl)-3,4,6,10b-tetrahydro-1H-pyrazino[2,1-a]isoindol-2-yl]-1-methyl-1,8-naphthyridin-2-one], the IC50 came to 325 nM.

Turning to `C[C@@H]1CN(c2cc(=O)n(C)c3ncccc23)C[C@@H]2c3ccc(N4CC[C@@](C)(N)C4)cc3CN12` [Example 4, 4-[(4R,10bS)-8-[(3R)-3-amino-3-methyl-pyrrolidin-1-yl]-4-methyl-3,4,6,10b-tetrahydro-1H-pyrazino[2,1-a]isoindol-2-yl]-1-methyl-1,8-naphthyridin-2-one], the IC50 is 127 nM.

As to `CO[C@@H]1CN(c2ccc3c(c2)CN2[C@H](C)CN(c4cc(=O)n(C)c5ncccc45)C[C@H]32)C[C@H]1N` [Example 5, 4-[(4R,10bS)-8-[(3R,4R)-3-amino-4-methoxy-pyrrolidin-1-yl]-4-methyl-3,4,6,10b-tetrahydro-1H-pyrazino[2,1-a]isoindol-2-yl]-1-methyl-1,8-naphthyridin-2-one], the IC50 worked out at 257 nM.

Consider `C[C@@H]1CN(c2cc(=O)n(C)c3ncccc23)C[C@@H]2c3ccc(N4C[C@H]5NCCO[C@@H]5C4)cc3CN12` [Example 6, 4-[(4R,10bS)-8-[(4aR,7aR)-3,4,4a,5,7,7a-hexahydro-2H-pyrrolo[3,4-b][1,4]oxazin-6-yl]-4-methyl-3,4,6,10b-tetrahydro-1H-pyrazino[2,1-a]isoindol-2-yl]-1-methyl-1,8-naphthyridin-2-one], for which the IC50 is 197 nM.

Regarding `C[C@@H]1CN(c2cc(=O)n(C)c3ncccc23)C[C@@H]2c3ccc(N4C[C@@H](N)[C@@H](F)C4)cc3CN12` [Example 7, 4-[(4R,10bS)-8-[(3R,4S)-3-amino-4-fluoro-pyrrolidin-1-yl]-4-methyl-3,4,6,10b-tetrahydro-1H-pyrazino[2,1-a]isoindol-2-yl]-1-methyl-1,8-naphthyridin-2-one], the IC50 amounted to 247 nM.

Take `CO[C@H]1CN(c2ccc3c(c2)CN2[C@H](C)CN(c4cc(=O)n(C)c5ncccc45)C[C@H]32)CC[C@@H]1N` [Example 8, 4-[(4R,10bS)-8-[(3S,4S)-4-amino-3-methoxy-1-piperidyl]-4-methyl-3,4,6,10b-tetrahydro-1H-pyrazino[2,1-a]isoindol-2-yl]-1-methyl-1,8-naphthyridin-2-one]: the IC50 came out at 226 nM.

In the case of `CO[C@H]1CCN(c2ccc3c(c2)CN2[C@H](C)CN(c4cc(=O)n(C)c5ncccc45)C[C@H]32)C[C@@H]1N` [Example 9, 4-[(4R,10bS)-8-[(3S,4S)-3-amino-4-methoxy-1-piperidyl]-4-methyl-3,4,6,10b-tetrahydro-1H-pyrazino[2,1-a]isoindol-2-yl]-1-methyl-1,8-naphthyridin-2-one], the IC50 stood at 266 nM.

`COC[C@@H]1CNCCN1c1ccc2c(c1)CN1[C@H](C)CN(c3cc(=O)n(C)c4ncccc34)C[C@H]21` [Example 10, 4-[(4R,10bS)-8-[(2S)-2-(methoxymethyl)piperazin-1-yl]-4-methyl-3,4,6,10b-tetrahydro-1H-pyrazino[2,1-a]isoindol-2-yl]-1-methyl-1,8-naphthyridin-2-one]: the IC50 came out at 248 nM.

As to `C[C@@H]1CN(c2cc(=O)n(C)c3ncccc23)C[C@@H]2c3ccc(N4CCOC5(CNC5)C4)cc3CN12` [Example 11, 4-[(4R,10bS)-4-methyl-8-(5-oxa-2,8-diazaspiro[3.5]nonan-8-yl)-3,4,6,10b-tetrahydro-1H-pyrazino[2,1-a]isoindol-2-yl]-1-methyl-1,8-naphthyridin-2-one], the IC50 amounted to 88 nM.

As to `C[C@@H]1CN(c2cc(=O)n(C)c3ncccc23)C[C@@H]2c3ccc(N4CCNCC4)cc3CN12` [Example 12, 4-[(4R,10bS)-4-methyl-8-piperazin-1-yl-3,4,6,10b-tetrahydro-1H-pyrazino[2,1-a]isoindol-2-yl]-1-methyl-1,8-naphthyridin-2-one], the IC50 amounted to 192 nM.

As for `C[C@@H]1CN(c2cc(=O)n(C)c3ncccc23)C[C@@H]2c3ccc(N4CCN[C@@H](C)C4)cc3CN12` [Example 13, 4-[(4R,10bS)-4-methyl-8-[(3S)-3-methylpiperazin-1-yl]-3,4,6,10b-tetrahydro-1H-pyrazino[2,1-a]isoindol-2-yl]-1-methyl-1,8-naphthyridin-2-one], the IC50 came out at 186 nM.

For the molecule `C[C@@H]1CN(c2ccc3c(c2)CN2[C@H](C)CN(c4cc(=O)n(C)c5ncccc45)C[C@H]32)CCN1` [Example 14, 4-[(4R,10bS)-4-methyl-8-[(3R)-3-methylpiperazin-1-yl]-3,4,6,10b-tetrahydro-1H-pyrazino[2,1-a]isoindol-2-yl]-1-methyl-1,8-naphthyridin-2-one], the IC50 turned out to be 144 nM.

With `C[C@@H]1CN(c2cc(=O)n(C)c3ncccc23)C[C@@H]2c3ccc(N4CCC[C@](C)(N)C4)cc3CN12` [Example 15, 4-[(4R,10bS)-8-[(3S)-3-amino-3-methyl-1-piperidyl]-4-methyl-3,4,6,10b-tetrahydro-1H-pyrazino[2,1-a]isoindol-2-yl]-1-methyl-1,8-naphthyridin-2-one], the IC50 was determined as 84 nM.

For the molecule `C[C@@H]1CN(c2cc(=O)n(C)c3ncccc23)C[C@@H]2c3ccc(N4CCC[C@@H](N)C4)cc3CN12` [Example 16, 4-[(4R,10bS)-8-[(3R)-3-amino-1-piperidyl]-4-methyl-3,4,6,10b-tetrahydro-1H-pyrazino[2,1-a]isoindol-2-yl]-1-methyl-1,8-naphthyridin-2-one], the IC50 worked out at 101 nM.

As for `C[C@@H]1CNCCN1c1ccc2c(c1)CN1[C@H](C)CN(c3cc(=O)n(C)c4ncccc34)C[C@H]21` [Example 17, 4-[(4R,10bS)-4-methyl-8-[(2R)-2-methylpiperazin-1-yl]-3,4,6,10b-tetrahydro-1H-pyrazino[2,1-a]isoindol-2-yl]-1-methyl-1,8-naphthyridin-2-one], the IC50 was found to be 222 nM.

For the molecule `C[C@@H]1CN(c2cc(=O)n(C)c3ncccc23)C[C@@H]2c3ccc(N4CCC(C)(N)CC4)cc3CN12` [Example 18, 4-[(4R,10bS)-8-(4-amino-4-methyl-1-piperidyl)-4-methyl-3,4,6,10b-tetrahydro-1H-pyrazino[2,1-a]isoindol-2-yl]-1-methyl-1,8-naphthyridin-2-one], the IC50 came out at 163 nM.
